Reference: ChEMBL document CHEMBL5360614, “Quinoline Thiourea-Based Zinc Ionophores with Antibacterial Activity” (J Med Chem, 2023)
≈ marks a conversion by molar mass, not a printed value. Calls of active or inactive are those of the source. The calls are words filed in the database; no cut-off is given here.

What was measured:
Lipid bilayer [1] = test: (§1) Induction of ionophore activity across EYPC:CHOL (8:2) large unilamellar vesicles assessed as transmembrane Zn2+ ion transport by measuring decrease in fluorescence intensity for HPTS dye at 10 uM preincubated for 3 mins in presence of FCCP followed by ZnCl2 addition and mesured after 7.5 mins by HPTS dye based fluorescence spectrophotometric analysis; conditions: filed as opener, time 10.5 min
Staphylococcus aureus [2] = test: In vivo antibacterial activity against Staphylococcus aureus MTCC-96 infected in Balb/c mouse assessed as normal architecture of hepatic artery in liver tissue at 31.6 microM/Kg, iv for 7 days in presence of ZnCl2 by hematoxylin and eosin staining based microscopic analysis; assay type: functional, organism-based; conditions: time 7.0 day
Staphylococcus aureus [3] = test: In vivo antibacterial activity against Staphylococcus aureus MTCC-96 infected in Balb/c mouse assessed as less dilated portal vein in liver at 156.5 microM/Kg, iv for 7 days by hematoxylin and eosin staining based microscopic analysis; assay type: functional, organism-based; conditions: time 7.0 day
Lipid bilayer [4] = test: as §1, with “cation” for “Zn2+ ion”, “dye” for “dye at 10 uM”, “mins” for “mins in presence of FCCP”, “RbCl” for “ZnCl2”; conditions: time 10.5 min
MCF-10A = test: Cytotoxicity against human MCF-10A cells assessed as reduction in cell viability at 1 to 100 uM incubated for 44 hrs by MTT assay; assay type: toxicity, cell-based; conditions: dose 1-100 µM
PBMC = test: Cytotoxicity against human PBMC cells assessed as reduction in cell viability at 12.5 to 200 uM incubated for 24 hrs by MTT assay; assay type: toxicity, cell-based; conditions: dose 12.5-200 µM
Lipid bilayer [5] = test: as §1, with “mins” for “mins in presence of FCCP”; conditions: filed as opener, time 10.5 min
Staphylococcus aureus [6] = test: In vivo antibacterial activity against Staphylococcus aureus MTCC-96 infected in Balb/c mouse assessed as reduction in bacterial load by measuring CFU in spleen at 31.6 microM/Kg, iv for 7 days in presence of ZnCl2 by CFU assay; assay type: functional, organism-based; conditions: time 7.0 day
Lipid bilayer [7] = test: as §1, with “cation” for “Zn2+ ion”, “dye” for “dye at 10 uM”, “mins” for “mins in presence of FCCP”, “NaCl” for “ZnCl2”; conditions: time 10.5 min
Staphylococcus aureus [8] = test: Antibacterial activity against gentamicin-and methicillin-resistant Staphylococcus aureus ATCC 33592 assessed as reduction in bacterial growth incubated for 14 to 16 hrs by microbroth dilution method; assay type: functional; conditions: time 14-16 hrs
Staphylococcus aureus [9] = test: In vivo antibacterial activity against Staphylococcus aureus MTCC-96 infected in Balb/c mouse assessed as normal morphology of spleen tissue at 156.5 microM/Kg, iv for 7 days by hematoxylin and eosin staining based microscopic analysis; assay type: functional, organism-based; conditions: time 7.0 day
Staphylococcus aureus [10] = test: In vivo antibacterial activity against Staphylococcus aureus MTCC-96 infected in Balb/c mouse assessed as bacterial load by measuring CFU in spleen at 156.5 microM/Kg, iv for 7 days by CFU assay; assay type: functional, organism-based; conditions: time 7.0 day
Staphylococcus aureus [11] = test: In vivo antibacterial activity against Staphylococcus aureus MTCC-96 infected in Balb/c mouse assessed as normal architecture of bile duct in liver tissue at 31.6 microM/Kg, iv for 7 days in presence of ZnCl2 by hematoxylin and eosin staining based microscopic analysis; assay type: functional, organism-based; conditions: time 7.0 day
Staphylococcus aureus [12] = test: Antibacterial activity against Staphylococcus aureus MTCC-96 assessed as reduction in bacterial growth incubated for 14 to 16 hrs by microbroth dilution method; assay type: functional; conditions: time 14-16 hrs
[13] = Binding affinity to Zn2+ ion assessed as binding constant by Benesi-Hildebrand equation analysis
Staphylococcus aureus [14] = test: Antibacterial activity against Staphylococcus aureus MTCC-96 assessed as reduction in bacterial growth incubated for 14 to 16 hrs in presence of 100 to 400 uM MgCl2 by microbroth dilution method; assay type: functional, organism-based; conditions: time 14-16 hrs
Lipid bilayer [15] = test: as §1, with “anion” for “Zn2+ ion”, “mins” for “mins in presence of FCCP”; conditions: filed as opener, time 10.5 min
Lipid bilayer [16] = test: as §1, with “cation” for “Zn2+ ion”, “dye” for “dye at 10 uM”, “mins” for “mins in presence of FCCP”, “MgCl2” for “ZnCl2”; conditions: time 10.5 min
Staphylococcus aureus [17] = test: Antibacterial activity against Staphylococcus aureus MTCC-96 assessed as reduction in bacterial growth incubated for 14 to 16 hrs in presence of 100 to 400 uM CuCl2 by microbroth dilution method; assay type: functional, organism-based; conditions: time 14-16 hrs
Erythrocyte = test: Hemolytic activity in human Red blood cells assessed as hemolysis rate at 1.6 to 50 uM incubated for 1 to 24 hrs in presence of ZnCl2 by absorbance based analysis; assay type: toxicity, cell-based; conditions: dose lower 1.6 µM, time lower 1 hrs, dose upper 50 µM, time upper 24 hrs
Staphylococcus aureus [18] = test: In vivo antibacterial activity against Staphylococcus aureus MTCC-96 infected in Balb/c mouse assessed as normal architecture of central vein in liver tissue at 31.6 microM/Kg, iv for 7 days in presence of ZnCl2 by hematoxylin and eosin staining based microscopic analysis; assay type: functional, organism-based; conditions: time 7.0 day
Lipid bilayer [19] = test: as §1, with “cation” for “Zn2+ ion”, “dye” for “dye at 10 uM”, “mins” for “mins in presence of FCCP”, “MnCl2” for “ZnCl2”; conditions: time 10.5 min
Lipid bilayer [20] = test: as §1, with “cation” for “Zn2+ ion”, “dye” for “dye at 10 uM”, “mins” for “mins in presence of FCCP”, “CaCl2” for “ZnCl2”; conditions: time 10.5 min
Staphylococcus aureus [21] = test: In vivo antibacterial activity against Staphylococcus aureus MTCC-96 infected in Balb/c mouse assessed as normal morphology of spleen tissue at 31.6 microM/Kg, iv for 7 days in presence of ZnCl2 by hematoxylin and eosin staining based microscopic analysis; assay type: functional, organism-based; conditions: time 7.0 day
Cell membrane = test: Induction of ionophore activity across Staphylococcus aureus MTCC-96 cell membrane assessed as AQZ directed Zn2+ ion transport by measuring increase in AQZ fluorescence intensity in presence of ZnCl2 and 2-((2-(2-hydroxyethoxy)ethyl)-amino)-N-(quinolin-8-yl)acetamide by fluorescence analysis; assay type: subcellular; conditions: filed as opener
Staphylococcus aureus [22] = test: In vivo antibacterial activity against Staphylococcus aureus MTCC-96 infected in Balb/c mouse assessed as less dilated hepatic artery at 156.5 microM/Kg, iv for 7 days by hematoxylin and eosin staining based microscopic analysis; assay type: functional, organism-based; conditions: time 7.0 day
Staphylococcus aureus [23] = test: In vivo antibacterial activity against Staphylococcus aureus MTCC-96 infected in Balb/c mouse assessed as reduction in bacterial load by measuring CFU in liver at 31.6 microM/Kg, iv for 7 days in presence of ZnCl2 by CFU assay; assay type: functional, organism-based; conditions: time 7.0 day
Staphylococcus aureus [24] = test: Antibacterial activity against Staphylococcus aureus MTCC-96 assessed as reduction in bacterial growth incubated for 14 to 16 hrs in presence of 100 to 400 uM CsCl by microbroth dilution method; assay type: functional, organism-based; conditions: time 14-16 hrs
Staphylococcus aureus [25] = test: Disruption of membrane integrity in Staphylococcus aureus MTCC-96 assessed as increase in fluorescence intensity at 4 to 8 uM by PI staining based fluorescence analysis; assay type: functional, organism-based; conditions: dose 4-8 µM
Staphylococcus aureus [26] = test: Bactericidal activity against Staphylococcus aureus MTCC-96 at 2 times MIC incubated for 1 hrs by time kill assay; assay type: functional, organism-based
Staphylococcus aureus [27] = test: Antibacterial activity against Staphylococcus aureus MTCC-96 assessed as resistance development by measuring fold increase in MIC and measured after 30 days by microbroth dilution method; assay type: functional; conditions: time 30 day
Staphylococcus aureus [28] = test: Antibacterial activity against gentamicin-and methicillin-resistant Staphylococcus aureus ATCC 33592 assessed as reduction in bacterial growth incubated for 14 to 16 hrs in presence of 100 uM ZnCl2 by microbroth dilution method; assay type: functional; conditions: time 14-16 hrs

FC(F)(F)c1cc(NC(=S)Nc2cccc3ccc(-n4cnc5ccccc54)nc23)cc(C(F)(F)F)c1
Activity (Lipid bilayer [1]): Active
Activity (Staphylococcus aureus [2]): Active
Activity (Staphylococcus aureus [3]): Active
Activity (Lipid bilayer [4]): inactive
Activity (MCF-10A): Non-Toxic
Activity (PBMC): Non-Toxic
Activity (Lipid bilayer [5]): Active
Activity (Staphylococcus aureus [6]): Active
Activity (Lipid bilayer [7]): inactive
MIC (Staphylococcus aureus [8]): 3.13 µM (≈ 1.66 µg/mL)
Activity (Staphylococcus aureus [9]): Active
Activity (Staphylococcus aureus [10]): Active
Activity (Staphylococcus aureus [11]): Active
MIC (Staphylococcus aureus [12]): 3.13 µM (≈ 1.66 µg/mL)
K [13]: 1.36 10^3/M
Activity (Staphylococcus aureus [14]): inactive
Activity (Lipid bilayer [15]): Active
Activity (Lipid bilayer [16]): inactive
Activity (Staphylococcus aureus [17]): inactive
Activity (Erythrocyte): Non-Toxic
Activity (Staphylococcus aureus [18]): Active
Activity (Lipid bilayer [19]): inactive
Activity (Lipid bilayer [20]): inactive
Activity (Staphylococcus aureus [21]): Active
Activity (Cell membrane): Active
Activity (Staphylococcus aureus [22]): Active
Activity (Staphylococcus aureus [23]): Active
Activity (Staphylococcus aureus [24]): inactive
Activity (Staphylococcus aureus [25]): inactive
Activity (Staphylococcus aureus [26]): Active
fold change (FC) (Staphylococcus aureus [27]): 14
MIC (Staphylococcus aureus [28]): 3.13 µM
